We go through eleven compounds from patent US12338243B2, “P2X7 modulators” (JANSSEN PHARMACEUTICA NV, priority 2014, dated 2025).

Experiment [1] deals with T1, rat P2X7 (Rattus norvegicus, UniProt Q64663).
T1 sequence (Q64663 1-595): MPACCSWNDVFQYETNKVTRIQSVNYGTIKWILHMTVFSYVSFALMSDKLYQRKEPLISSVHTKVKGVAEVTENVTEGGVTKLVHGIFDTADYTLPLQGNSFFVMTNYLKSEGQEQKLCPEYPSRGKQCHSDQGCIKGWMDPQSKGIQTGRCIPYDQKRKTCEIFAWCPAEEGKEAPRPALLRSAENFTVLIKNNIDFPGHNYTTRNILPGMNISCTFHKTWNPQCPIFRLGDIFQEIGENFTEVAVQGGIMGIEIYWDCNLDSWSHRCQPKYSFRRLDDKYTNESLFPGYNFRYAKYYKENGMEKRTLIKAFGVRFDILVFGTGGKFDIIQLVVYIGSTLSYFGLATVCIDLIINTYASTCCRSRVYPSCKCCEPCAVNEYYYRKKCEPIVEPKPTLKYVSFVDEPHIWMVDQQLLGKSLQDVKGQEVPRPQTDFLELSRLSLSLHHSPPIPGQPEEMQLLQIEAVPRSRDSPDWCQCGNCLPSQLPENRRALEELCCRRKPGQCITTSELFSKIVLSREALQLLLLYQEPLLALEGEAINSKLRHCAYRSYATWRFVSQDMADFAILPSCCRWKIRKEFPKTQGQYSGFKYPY
Description: Radioligand binding, rat P2X7-1321N1 cell membranes, tritiated A-804598.
Description: (§3) P2X7 Antagonism in Recombinant Human P2X7 Cells or Recombinant Rat P2X7 Cells: (a) Ca^2+ Flux and (b) Radioligand Binding

Experiment [2] addresses T2, P2X7 (Homo sapiens, UniProt Q99572).
T2 sequence (Q99572 1-595): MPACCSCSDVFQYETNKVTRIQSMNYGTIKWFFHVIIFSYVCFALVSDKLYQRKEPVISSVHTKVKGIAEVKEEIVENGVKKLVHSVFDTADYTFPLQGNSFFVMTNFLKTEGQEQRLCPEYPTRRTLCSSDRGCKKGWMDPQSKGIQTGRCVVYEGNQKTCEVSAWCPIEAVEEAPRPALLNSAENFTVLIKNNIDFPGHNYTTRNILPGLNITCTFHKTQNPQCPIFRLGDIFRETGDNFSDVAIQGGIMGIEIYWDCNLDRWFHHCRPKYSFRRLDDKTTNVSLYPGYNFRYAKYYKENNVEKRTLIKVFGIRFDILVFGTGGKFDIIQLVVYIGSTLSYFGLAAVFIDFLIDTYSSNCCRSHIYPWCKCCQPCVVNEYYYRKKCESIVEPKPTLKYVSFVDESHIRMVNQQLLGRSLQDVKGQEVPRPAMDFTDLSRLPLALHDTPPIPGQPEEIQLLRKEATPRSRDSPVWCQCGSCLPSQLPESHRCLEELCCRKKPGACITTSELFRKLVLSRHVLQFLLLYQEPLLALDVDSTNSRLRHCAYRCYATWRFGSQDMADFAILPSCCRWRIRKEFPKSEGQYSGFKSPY
Briefly: Radioligand binding, human P2X7-1321N1 cell membranes, tritiated A-804598.
Description: as §3

The target in experiment [3] is T1, rat P2X7. Briefly: Ca2+ flux (FLIPR) in 1321N1 cells expressing recombinant rat P2X7 channel. The note with it: FLIPR (rat) IC50 (μM), 250 μM BzATP.
Description: as §3
(a) Ca^2+ flux: 1321N1 cells expressing the recombinant human or rat P2X7 channel was cultured in HyQ DME/(HyClone/Dulbecco's Modified Eagle Medium) high glucose supplemented with 10% Fetal Bovine Serum (FBS) and appropriate selection marker. Cells were seeded at a density of 25000 cells/well (96-well clear bottom black walled plates) in 100 μl volume/well. On the day of the experiment, cell plates were washed with assay buffer, containing (in mM): 130 NaCl, 2 KCl, 1 CaCl2), 1 MgCl2, 10 HEPES, 5 glucose; pH 7.40 and 300 mOs. After the wash, cells were loaded with the Calcium-4 dye (Molecular Device) and incubated in the dark for 60 minutes. Test compounds were prepared at 250× the test concentration in neat DMSO. Intermediate 96-well compound plates were prepared by transferring 1.2 μL of the compound into 300 μL of assay buffer. A further 3× dilution occurred when transferring 50 μL/well of the compound plate to 100 μL/well in the cell plate. Cells were incubated with test compounds and dye for 30 minutes. […] The fluorescence change was measured 180 seconds after adding the agonist.
For experiment [4], the target named is T2, P2X7. Briefly: Ca2+ flux (FLIPR) in 1321N1 cells expressing recombinant human P2X7 channel. It is filed as cell-based. Details: expressed in transfected cells; host or cells: 1321N1 cells. The note with it: 250 μM BzATP. In short, it runs like this:
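1321N1 cells expressing recombinant human P2X7, loaded 60 min with Calcium-4 dye in HEPES buffer pH 7.40 (1 mM CaCl2, 1 mM MgCl2), preincubated 30 min with compounds. Fluorescence change recorded 180 seconds after agonist addition.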
In general terms: A change in cytosolic calcium serves as a functional read-out for many receptors and channels.

In experiment [5] the target is T2, P2X7. Briefly: P2X7 antagonism in human whole blood (IL-1β release, ELISA). Conditions: LPS 30 ng/ml + 1 mM Bz-ATP. Details: PBMCs were isolated from blood using a Ficoll density gradient technique; endogenous in cells; host or cells: human PBMCs / human whole blood from donors. The format is cell-based. Here is the method:
(§1) P2X7 Antagonism in Human Peripheral Blood Mononuclear Cells (PBMCs) and Human Whole Blood.
(§2) Human blood was collected using a blood donor program. PBMCs were isolated from blood using a Ficoll density gradient technique. Briefly, blood was laid on Ficoll solution and centrifuged at RT for 20 minutes at 2000 rpm. The buffy layer (between red blood cells and plasma) was carefully collected by aspiration, washed with PBS and centrifuged again at 1500 rpm for 15 minutes. The resulting cell pellet was washed and plated on 96 well-plates for experiments. For the Human Whole Blood experiments, 150 μl of human blood was platted on 96 well-plates. Lipopolysaccharide (LPS) (30 ng/ml) was added to each well and incubated for 1 hour. Test compounds were then added and incubated for 30 minutes. The P2X7 agonist, 2′(3′)-O-(4-benzoylbenzoyl) adenosine 5′ triphosphate (Bz-ATP) was then added at a final concentration of 0.5 mM (PBMC) or 1 mM (blood). Cells were incubated for an additional 1.5 hours. At that point, supernatant was collected and stored for IL-1β assay using manufacturer's protocol for enzyme-linked immunosorbent assay (ELISA). Data was expressed as percent control, where control is defined as the difference in IL-1β release in LPS+Bz-ATP samples and LPS only samples. Data was plotted as response (% control) versus concentration to generate IC50 values. […] Data are analyzed and graphed on Graphpad Prism 5. For analysis, each concentration point is averaged from triplicate values and the averaged values are plotted on Graphpad Prism. The IC50 for each compound is then uploaded into 3DX.
In general terms: ELISA stands for enzyme-linked immunosorbent assay.

Experiment [6] has as its target T2, P2X7. Description: P2X7 antagonism in human PBMCs (IL-1β release, ELISA). It is filed as cell-based. Further details: PBMCs were isolated from blood using a Ficoll density gradient technique; endogenous in cells; host or cells: human PBMCs / human whole blood from donors. The note with it: LPS 30 ng/ml + 0.5 mM Bz-ATP, compound 10 μM. Here is the method:
as §1, §2

SMILES strings stand for the structures.

What is called Ki is the equilibrium dissociation constant of an inhibitor or competing ligand from its target. Read a high Ki as weaker binding. The term IC50 denotes the concentration that inhibits the measured activity by half. Regarding `Cc1nnc2n1CCN(C(=O)c1cccc(C(F)(F)F)c1Cl)C2c1ccccc1` (racemic) [Example 53, (2-chloro-3-(trifluoromethyl)phenyl)(3-methyl-8-phenyl-5,6-dihydro-[1,2,4]triazolo[4,3-a]pyrazin-7(8H)-yl)methanone], the results for the Ki at rat P2X7 [1] and at P2X7 [2] were 39.8 nM and 15.8 nM, respectively. For the same compound, the IC50 was found to be 0.0628 µM on rat P2X7 [3], 2 nM on P2X7 [4] and 79 nM on P2X7 [5].

For the compound `O=C(c1ccc(F)c(C(F)(F)F)c1Cl)N1CCn2c(nnc2C(F)(F)F)C1c1ccccc1` (single isomer, unassigned) [Example 95, (R*)-(2-chloro-4-fluoro-3-(trifluoromethyl)phenyl)(8-phenyl-3-(trifluoromethyl)-5,6-dihydro-[1,2,4]triazolo[4,3-a]pyrazin-7(8H)-yl)methanone], the “PBMC 10 μM (% control)” value on P2X7 [6] stood at 8.9 % control. For the same compound, affinity at P2X7 [2] was put at a Ki of 31.6 nM. In addition, the half-maximal inhibitory concentration (IC50) on rat P2X7 [3] worked out at 0.211 µM; on P2X7 [4], 9.7 nM.

Take `O=C(c1ccc(F)c(C(F)(F)F)c1Cl)N1CCn2c(nnc2C(F)(F)F)C1c1ccccc1` (single isomer, unassigned) [Example 96, (S*)-(2-chloro-4-fluoro-3-(trifluoromethyl)phenyl)(8-phenyl-3-(trifluoromethyl)-5,6-dihydro-[1,2,4]triazolo[4,3-a]pyrazin-7(8H)-yl)methanone]: the “PBMC 10 μM (% control)” value at P2X7 [6] was 43.6 % control. The IC50 was more than 10 µM on rat P2X7 [3] and 4890 nM at P2X7 [4].

With `O=C(c1ccnc(C(F)(F)F)c1Cl)N1CCn2c(nnc2C(F)(F)F)C1c1ccccc1` (single isomer, unassigned) [Example 99, (R*)-(3-chloro-2-(trifluoromethyl)pyridin-4-yl)(8-phenyl-3-(trifluoromethyl)-5,6-dihydro-[1,2,4]triazolo[4,3-a]pyrazin-7(8H)-yl)methanone], the “PBMC 10 μM (% control)” value at P2X7 [6] was 4.9 % control. The values for the Ki at rat P2X7 [1] and on P2X7 [2] were 6.3 nM and 17.4 nM, respectively. Moreover, the IC50 at rat P2X7 [3] was determined as 0.0348 µM; at P2X7 [4], 9.1 nM.

As to `O=C(c1ccnc(C(F)(F)F)c1Cl)N1CCn2c(nnc2C(F)(F)F)C1c1ccccc1` (single isomer, unassigned) [Example 100, (S*)-(3-chloro-2-(trifluoromethyl)pyridin-4-yl)(8-phenyl-3-(trifluoromethyl)-5,6-dihydro-[1,2,4]triazolo[4,3-a]pyrazin-7(8H)-yl)methanone], the “PBMC 10 μM (% control)” value at P2X7 [6] was 102.0 % control.

`C[C@H]1Cn2c(nnc2-c2ccco2)CN1C(=O)c1cccc(C(F)(F)F)c1Cl` [Example 24, (S)-(2-chloro-3-(trifluoromethyl)phenyl)(3-(furan-2-yl)-6-methyl-5,6-dihydro-[1,2,4]triazolo[4,3-a]pyrazin-7(8H)-yl)methanone] yielded an inhibition constant Ki at P2X7 [2] of 21.9 nM. For the same compound, the IC50 on rat P2X7 [3] amounted to 0.0047 µM; at P2X7 [4], 6.8 nM; at P2X7 [5], 25 nM.

Take `C[C@H]1Cn2c(nnc2-c2cc(F)c(F)c(F)c2)CN1C(=O)c1cccc(C(F)(F)F)c1Cl` [Example 30, (S)-(2-chloro-3-(trifluoromethyl)phenyl)(6-methyl-3-(3,4,5-trifluorophenyl)-5,6-dihydro-[1,2,4]triazolo[4,3-a]pyrazin-7(8H)-yl)methanone]: the Ki at P2X7 [2] was determined as 50.1 nM. Moreover, the values for the IC50 on rat P2X7 [3], at P2X7 [4] and on P2X7 [5] were 0.927 µM, 83.8 nM and 1590 nM, respectively.

As for `O=C(c1cccc(C(F)(F)F)c1Cl)N1CCn2c(nnc2C(F)(F)F)[C@H]1c1ccccc1` [Example 97, (R)-(2-chloro-3-(trifluoromethyl)phenyl)(8-phenyl-3-(trifluoromethyl)-5,6-dihydro-[1,2,4]triazolo[4,3-a]pyrazin-7(8H)-yl)methanone], the Ki at rat P2X7 [1] is 4.7 nM; on P2X7 [2] it was 12.6 nM. For the same compound, the IC50 on rat P2X7 [3] stood at 0.0428 µM; on P2X7 [4], 7.8 nM.

For the compound `O=C(c1cccc(Cl)c1Cl)N1CCn2c(nnc2C(F)(F)F)[C@H]1c1ccccc1` [Example 102, (R)-(2,3-dichlorophenyl)(8-phenyl-3-(trifluoromethyl)-5,6-dihydro-[1,2,4]triazolo[4,3-a]pyrazin-7(8H)-yl)methanone], the Ki at rat P2X7 [1] amounted to 29.5 nM; at P2X7 [2], 10 nM. Further, the IC50 on rat P2X7 [3] came to 0.488 µM; at P2X7 [4], 10.5 nM.

Turning to `O=C(c1cccc(C(F)(F)F)c1Cl)N1CCn2c(C(F)F)nnc2[C@H]1c1ccccc1` [Example 108, (R)-(2-chloro-3-(trifluoromethyl)phenyl)(3-(difluoromethyl)-8-phenyl-5,6-dihydro-[1,2,4]triazolo[4,3-a]pyrazin-7(8H)-yl)methanone], the Ki at rat P2X7 [1] was 10 nM; on P2X7 [2], 5.8 nM. Besides, the results for the IC50 on rat P2X7 [3] and at P2X7 [4] were 0.0816 µM and 8.6 nM, respectively.

As for `O=C(c1cccc(Cl)c1Cl)N1CCn2c(C(F)F)nnc2[C@H]1c1ccccc1` [Example 110, (R)-(2,3-dichlorophenyl)(3-(difluoromethyl)-8-phenyl-5,6-dihydro-[1,2,4]triazolo[4,3-a]pyrazin-7(8H)-yl)methanone], the Ki on rat P2X7 [1] was 16.6 nM; at P2X7 [2], 7.9 nM. Further, the IC50 on rat P2X7 [3] came to 0.441 µM; on P2X7 [4], 3.4 nM.
